Laboratory results taken from ChEMBL document CHEMBL5257092, “Synthesis and biological evaluation of biaryl alkyl ethers as inhibitors of IDO1” (Bioorg Med Chem Lett, 2023).

Legend:
[1] = Metabolic stability in rat liver microsomes assessed as compound remaining at 0.5 uM incubated for 10 mins relative to control; format: ADME, Microsome; conditions: microsomes, 10 min, 0.5 µM
[2] = Metabolic stability in human liver microsomes assessed as compound remaining at 0.5 uM incubated for 10 mins relative to control; format: ADME, Microsome; conditions: microsomes, 10 min, 0.5 µM
[3] = Metabolic stability in mouse liver microsomes assessed as compound remaining at 0.5 uM incubated for 10 mins relative to control; format: ADME, Microsome; conditions: microsomes, 10 min, 0.5 µM
[4] = molecular target: Indoleamine 2,3-dioxygenase 1 (Homo sapiens, UniProt P14902); test: Inhibition of IDO1 (unknown origin) expressed in human HeLa cells; format: cell-based
Sequence of Indoleamine 2,3-dioxygenase 1 (P14902 whole entry): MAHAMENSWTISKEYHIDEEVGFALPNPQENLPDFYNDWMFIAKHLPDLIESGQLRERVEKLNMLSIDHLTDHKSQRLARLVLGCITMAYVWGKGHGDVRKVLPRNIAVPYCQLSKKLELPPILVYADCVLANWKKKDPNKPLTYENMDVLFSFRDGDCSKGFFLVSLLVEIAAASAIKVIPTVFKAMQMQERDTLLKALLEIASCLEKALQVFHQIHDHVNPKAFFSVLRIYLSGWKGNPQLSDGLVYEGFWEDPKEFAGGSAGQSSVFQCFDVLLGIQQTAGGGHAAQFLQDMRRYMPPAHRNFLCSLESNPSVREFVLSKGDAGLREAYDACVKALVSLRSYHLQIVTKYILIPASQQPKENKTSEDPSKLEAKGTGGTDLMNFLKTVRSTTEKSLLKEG

Cytochrome P450 2B6 = molecular target: T1, Cytochrome P450 2B6 (Homo sapiens, UniProt P20813); test: Inhibition of CYP2B6 (unknown origin); format: ADME
T1 sequence (P20813 whole entry): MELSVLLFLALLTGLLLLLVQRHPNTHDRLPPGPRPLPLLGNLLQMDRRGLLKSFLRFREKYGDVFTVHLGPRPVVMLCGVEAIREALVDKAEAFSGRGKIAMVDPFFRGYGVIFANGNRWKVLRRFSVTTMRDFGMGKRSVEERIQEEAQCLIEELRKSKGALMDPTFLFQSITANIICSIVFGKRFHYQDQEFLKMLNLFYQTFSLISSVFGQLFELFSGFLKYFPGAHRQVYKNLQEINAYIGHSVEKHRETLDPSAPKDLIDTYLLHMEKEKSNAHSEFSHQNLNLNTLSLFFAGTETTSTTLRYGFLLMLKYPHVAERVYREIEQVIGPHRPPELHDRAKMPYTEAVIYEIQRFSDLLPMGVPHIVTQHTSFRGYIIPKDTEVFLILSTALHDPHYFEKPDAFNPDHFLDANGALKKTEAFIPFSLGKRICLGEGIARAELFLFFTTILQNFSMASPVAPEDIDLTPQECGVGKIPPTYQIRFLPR

[5] = molecular target: Tryptophan 2,3-dioxygenase (Homo sapiens, UniProt P48775); test: Inhibition of TDO (unknown origin) expressed in HEK cells; format: cell-based; conditions: hek
Sequence of Tryptophan 2,3-dioxygenase (P48775 whole entry): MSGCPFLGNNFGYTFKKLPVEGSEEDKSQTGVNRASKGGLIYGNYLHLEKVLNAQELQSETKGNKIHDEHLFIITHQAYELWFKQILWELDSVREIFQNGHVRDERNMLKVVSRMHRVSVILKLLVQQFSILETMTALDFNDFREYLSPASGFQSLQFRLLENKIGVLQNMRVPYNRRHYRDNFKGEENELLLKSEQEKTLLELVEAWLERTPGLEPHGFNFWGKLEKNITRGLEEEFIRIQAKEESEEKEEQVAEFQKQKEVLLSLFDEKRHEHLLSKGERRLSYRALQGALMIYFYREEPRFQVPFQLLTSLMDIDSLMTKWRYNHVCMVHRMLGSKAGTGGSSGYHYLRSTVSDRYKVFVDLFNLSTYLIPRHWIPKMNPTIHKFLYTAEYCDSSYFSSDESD

[6] = molecular target: Voltage-gated inwardly rectifying potassium channel KCNH2 (Homo sapiens, UniProt Q12809); test: Inhibition of hERG at 10 uM relative to control; format: toxicity; conditions: 10 µM
Sequence of Voltage-gated inwardly rectifying potassium channel KCNH2 (Q12809 whole entry): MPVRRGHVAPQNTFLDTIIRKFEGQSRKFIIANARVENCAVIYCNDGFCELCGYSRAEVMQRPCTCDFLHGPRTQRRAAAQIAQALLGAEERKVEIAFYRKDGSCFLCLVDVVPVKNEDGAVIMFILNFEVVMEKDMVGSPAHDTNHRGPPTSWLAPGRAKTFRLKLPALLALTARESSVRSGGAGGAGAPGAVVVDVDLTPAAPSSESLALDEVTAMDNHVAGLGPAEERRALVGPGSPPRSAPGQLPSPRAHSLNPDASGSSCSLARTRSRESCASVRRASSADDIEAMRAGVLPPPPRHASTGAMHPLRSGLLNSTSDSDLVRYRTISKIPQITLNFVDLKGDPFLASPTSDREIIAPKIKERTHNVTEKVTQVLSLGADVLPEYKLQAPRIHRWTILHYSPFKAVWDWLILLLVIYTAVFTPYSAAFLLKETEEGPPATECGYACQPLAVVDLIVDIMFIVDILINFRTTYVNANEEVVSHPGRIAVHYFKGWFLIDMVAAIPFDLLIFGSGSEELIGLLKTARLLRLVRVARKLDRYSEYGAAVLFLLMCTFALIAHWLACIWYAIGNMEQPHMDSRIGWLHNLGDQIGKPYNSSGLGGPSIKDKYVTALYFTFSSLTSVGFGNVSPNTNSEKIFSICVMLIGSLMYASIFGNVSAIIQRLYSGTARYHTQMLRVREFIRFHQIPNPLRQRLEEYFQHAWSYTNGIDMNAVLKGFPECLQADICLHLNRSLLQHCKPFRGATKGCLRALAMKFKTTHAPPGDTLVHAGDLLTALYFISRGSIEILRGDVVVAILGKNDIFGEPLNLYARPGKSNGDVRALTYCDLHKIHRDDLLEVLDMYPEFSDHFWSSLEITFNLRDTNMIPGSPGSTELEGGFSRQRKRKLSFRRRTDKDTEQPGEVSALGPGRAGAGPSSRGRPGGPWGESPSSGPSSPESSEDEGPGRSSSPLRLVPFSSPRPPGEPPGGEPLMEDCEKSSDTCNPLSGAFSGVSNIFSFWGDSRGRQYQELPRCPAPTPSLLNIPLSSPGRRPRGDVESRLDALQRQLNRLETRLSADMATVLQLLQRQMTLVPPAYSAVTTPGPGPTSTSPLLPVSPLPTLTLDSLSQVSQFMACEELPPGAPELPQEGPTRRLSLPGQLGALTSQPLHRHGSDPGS

Which Stability [1] does the source give for `Cc1ccc(NC(=O)Nc2cc(-c3ccccc3-c3nc(=O)[nH]o3)cc3c2OCCCC3c2ccccc2)cc1` (stereo in doubt; 20) here?
Its Stability is 38%.

What about the Stability [2] of the same compound?
The Stability was 73%.

And the Stability [3]?
Its Stability is 40%.

And the IC50 [4]?
Its IC50 is 4.6 nM.

And the IC50 (Cytochrome P450 2B6)?
Its IC50 is 780 nM.

And the IC50 [5]?
The IC50 was greater than 6000 nM.

What about the “inhibition (INH)” value [6] of the same compound?
The value was 18%.
